Values of other authors, collected in patent US6812249B2, “Process for preparing a 3-hydroxy-3-methylbutyrate amino acid salt and method of use” (priority 2003, dated 2004).

Conditions: experienced weight trained athletes; oral supplementation for 6 weeks or 28 days

## CC(C)(O)CC(=O)[O-].CC(C)(O)CC(=O)[O-].[Ca+2] [HMB calcium salt]
  alteration in muscle size, fat mass, or strength variables: no alteration in muscle size, fat mass, or strength variables
